Measured values published in patent US20240360135A1, “IMIDAZO[1,2-B]PYRIDAZINYL COMPOUNDS AND USES THEREOF” (Sumitomo Pharma Oncology, Inc., priority 2021, published 2024).

Tests used:
[1] = biological target: T1, PIM1 (Homo sapiens, UniProt P11309); test: RBC HotSpot kinase inhibition assay, PIM1; type: biochemical
T1 construct: purchased Invitrogen PV3503
Method: Reagents. Base Reaction Buffer: 20 mM Hepes (pH 7.5), 10 mM MgCl2, 1 mM EGTA, 0.01% Brij35, 0.02 mg/ml BSA, 0.1 mM Na3VO4, 2 mM DTT, 1% DMSO. The following kinases were used in the assay at the indicated concentrations:
The following substrates were used in combination with the indicated kinases in the assay at the indicated concentration:
No cofactors were added to any of the reactions.
• 1. Prepared substrate in freshly prepared Reaction Buffer. • 2. Delivered kinase into the substrate solution and gently mixed. • 3. Delivered test compound in 100% DMSO into the kinase reaction mixture by Acoustic technology (Echo550; nanoliter range), incubated for 20 minutes at room temperature. • 4. Delivered ^33P-ATP into the reaction mixture to initiate the reaction. • 5. Incubated for 2 hours at room temperature. • 6. Detected kinase activity by P81 filter-binding method.
The results of the RBC HotSpot™ kinase assay are set forth in Table 1, wherein “A” indicates an IC50<10 nM, “B” indicates an IC50 wherein 10 nM≤IC50≤100 nM, and “C” indicates an IC50>100 nM.

[2] = system: Caspase 3/7; test: Apoptosis assay (Caspase 3/7) in A549 cells; type: cell-based; conditions: Homo sapiens, 24 hours, read-out: EC50, Caspase 3/7 activation
Text: Overview. PIM1 is a kinase, and has many downstream targets including Bad (BCL2 associated agonist of cell death), a member of the BCL-2 family. BCL-2 family members are regulators of the programmed cell death pathways. Proapoptotic activity of Bad is regulated through its phosphorylation. Dephosphorylated Bad forms a heterodimer with Bcl-2 and Bcl-xL, inactivating them and thus allowing Bax/Bak-triggered apoptosis. Bad phosphorylation is thus anti-apoptotic, and Bad dephosphorylation is pro-apoptotic. PIM inhibition is expected to result in a decrease of phosphorylated Bad, and an increase in apoptosis.
Procedure. Three thousand five hundred A549 cells (ATCC, CCL-185) were added per well of a 384-well plate in a total volume of twenty-five microliters and cultured in RPMI medium (no phenol red)+plus ten percent fetal calf serum. The next day, DMSO or test compound was added (90 nanoliters of test compound/DMSO per well) at 7 different concentrations starting at 10 micromolar (3.3-fold dilution). After 24 hours at 37° C. with 5% CO2, apoptosis was measured by using the Caspase 3/7 assay system (Promega, G8090). […] The cells were then incubated at room temperature for 30 minutes and luminescence was measured for each sample using a plate reading luminometer (Envision, PerkinElmer).

[3] = system: bleomycin-induced lung fibrosis; test: Bleomycin-induced lung fibrosis model in mice; type: in vivo, C57BL/6J mice; conditions: day 21
Method: Overview. The most common animal model of pulmonary fibrosis is the bleomycin-induced lung fibrosis model in rodents. This model is commonly used to investigate biology and potential therapies for fibrotic diseases affecting the lung, such as idiopathic pulmonary fibrosis (IPF). Bleomycin, a cytotoxic drug, is administered to mice or rats, and causes direct cell injury triggered by DNA strand breaks, which leads to an overproduction of reactive oxygen species causing inflammation, pulmonary toxicity, activation of fibroblasts and subsequent fibrosis. Fibrosis is hallmarked by aberrant activation of lung epithelial cells and accumulation of fibroblasts and myofibroblasts with excessive production of extracellular matrix such as collagen.
Hydroxyproline is a major component of protein collagen, and plays a key role in the stability of the collagen triple helix. […]
Procedure. […] The snap frozen portion of the lung tissue was subjected to hydroxyproline quantification, which is used as a common biomarker of fibrosis. […] The histological sections were scored using a modified Ashcroft scale, the number of mononuclear cell aggregates and alveolar mixed infiltrates as well as the levels of collagen. The mice were weighed on day seven, fourteen, and twenty-one to monitor weight changes, and mortality and clinical observations were recorded daily. […]

T1 sequence (P11309 whole entry): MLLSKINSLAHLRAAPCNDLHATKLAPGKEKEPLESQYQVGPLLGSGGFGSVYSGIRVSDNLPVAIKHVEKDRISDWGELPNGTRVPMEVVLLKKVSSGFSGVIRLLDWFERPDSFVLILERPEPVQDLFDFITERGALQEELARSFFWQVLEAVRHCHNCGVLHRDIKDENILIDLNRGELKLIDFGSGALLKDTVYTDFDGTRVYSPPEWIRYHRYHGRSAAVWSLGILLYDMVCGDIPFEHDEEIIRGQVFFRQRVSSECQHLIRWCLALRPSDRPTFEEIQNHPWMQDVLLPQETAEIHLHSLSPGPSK

Row | SMILES | IC50 [1] | EC50 [2] | reduction of hydroxyproline in lung tissue ([3]; 15 milligrams per kilogram twice a day) | Ashcroft score ([3]; 20 milligrams per kilogram twice a day)
1 | CC(C)(O)C12CCC(Nc3ccc4ncc(-c5cc(C6CC6)[nH]n5)n4n3)(CC1)CC2 [Compound 4, 2-(4-((3-(5-cyclopropyl-1H-pyrazol-3-yl)imidazo[1,2-b]pyridazin-6-yl)amino)bicyclo[2.2.2]octan-1-yl)propan-2-ol] | < 10 nM | 1000 to 20000 nM | greatest and most statistically significant reduction | 
2 | Cc1cc(-c2cnc3ccc(NC45CCC(C(C)(C)O)(CC4)CC5)nn23)n[nH]1 [Compound 2, 2-(4-((3-(5-methyl-1H-pyrazol-3-yl)imidazo[1,2-b]pyridazin-6-yl)amino)bicyclo[2.2.2]octan-1-yl)propan-2-ol] | < 10 nM | 1000 to 20000 nM |  | significantly reduced
